# In patent US12343326B2, “Psychoactive medicines and their use for treating psychiatric and neurological conditions and disorders” (Transcend Therapeutics, Inc., priority 2021, dated 2025):
# Legend:
# Assay in all cases: β-arrestin based GPCR screen (PathHunter / GPCRmax), agonist mode
# Assay type in all cases: cell-based
# Set-up in all cases: host or cells: PathHunter cell lines
# 168 GPCRs [1] = biological target: 168 GPCRs (Homo sapiens, UniProt P55085)
# Procedure: (§1) For agonist determination, cells were incubated with sample to induce response. […] Vehicle concentration was 1%.
# 168 GPCRs [2] = biological target: 168 GPCRs (Homo sapiens, UniProt P28336); settings: NMBR
# Procedure: as §1
# 168 GPCRs [3] = biological target: 168 GPCRs (Homo sapiens, UniProt P35414); settings: AGTRL1, Agonist
# Procedure: as §1
# 168 GPCRs [4] = biological target: 168 GPCRs (Homo sapiens, UniProt P16473); settings: TSHR(L)
# Procedure: as §1
# 168 GPCRs [5] = biological target: 168 GPCRs (Homo sapiens, UniProt P35372)
# Procedure: as §1
# 168 GPCRs [6] = biological target: 168 GPCRs (Homo sapiens, UniProt P49146); settings: NPY2R
# Procedure: as §1
# 168 GPCRs [7] = biological target: 168 GPCRs (Homo sapiens, UniProt P46663); settings: BDKRB1, Agonist
# Procedure: as §1
# 168 GPCRs [8] = biological target: 168 GPCRs (Homo sapiens, UniProt P08908); settings: HTR1A
# Procedure: as §1
# 168 GPCRs [9] = biological target: 168 GPCRs (Homo sapiens, UniProt P30559); settings: OXTR
# Procedure: as §1
# 168 GPCRs [10] = biological target: 168 GPCRs (Homo sapiens, UniProt P32238); settings: CCKAR, Agonist
# Procedure: as §1
# 168 GPCRs [11] = biological target: 168 GPCRs (Homo sapiens, UniProt P30872)
# Procedure: as §1
# 168 GPCRs [12] = biological target: T1, 168 GPCRs (Homo sapiens, UniProt Q96RI0)
# T1 sequence (Q96RI0 18-385): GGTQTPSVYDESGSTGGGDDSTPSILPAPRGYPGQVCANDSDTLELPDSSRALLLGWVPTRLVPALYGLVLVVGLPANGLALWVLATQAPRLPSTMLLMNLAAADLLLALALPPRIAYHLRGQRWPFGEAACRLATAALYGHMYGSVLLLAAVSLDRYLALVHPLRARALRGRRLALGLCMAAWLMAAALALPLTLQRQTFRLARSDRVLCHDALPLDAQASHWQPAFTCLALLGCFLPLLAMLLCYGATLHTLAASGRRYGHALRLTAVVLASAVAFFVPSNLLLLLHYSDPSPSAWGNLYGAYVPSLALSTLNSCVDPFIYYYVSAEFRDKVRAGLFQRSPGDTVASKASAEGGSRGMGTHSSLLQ
# Procedure: as §1
# 168 GPCRs [13] = biological target: 168 GPCRs (Homo sapiens, UniProt P48145)
# Procedure: as §1
# 168 GPCRs [14] = biological target: 168 GPCRs (Homo sapiens, UniProt Q9H3N8)
# Procedure: as §1
# 168 GPCRs [15] = biological target: 168 GPCRs (Homo sapiens, UniProt P25021)
# Procedure: as §1
# 168 GPCRs [16] = biological target: 168 GPCRs (Homo sapiens, UniProt P25025)
# Procedure: as §1
# 168 GPCRs [17] = biological target: 168 GPCRs (Homo sapiens, UniProt P25116); settings: F2R
# Procedure: as §1
# 168 GPCRs [18] = biological target: 168 GPCRs (Homo sapiens, UniProt Q96G91)
# Procedure: as §1
# 168 GPCRs [19] = biological target: 168 GPCRs (Homo sapiens, UniProt P25090)
# Procedure: as §1
# 168 GPCRs [20] = biological target: 168 GPCRs (Homo sapiens, UniProt P30989)
# Procedure: as §1
# Sequence of 168 GPCRs (Homo sapiens, UniProt P35414) (P35414 whole entry): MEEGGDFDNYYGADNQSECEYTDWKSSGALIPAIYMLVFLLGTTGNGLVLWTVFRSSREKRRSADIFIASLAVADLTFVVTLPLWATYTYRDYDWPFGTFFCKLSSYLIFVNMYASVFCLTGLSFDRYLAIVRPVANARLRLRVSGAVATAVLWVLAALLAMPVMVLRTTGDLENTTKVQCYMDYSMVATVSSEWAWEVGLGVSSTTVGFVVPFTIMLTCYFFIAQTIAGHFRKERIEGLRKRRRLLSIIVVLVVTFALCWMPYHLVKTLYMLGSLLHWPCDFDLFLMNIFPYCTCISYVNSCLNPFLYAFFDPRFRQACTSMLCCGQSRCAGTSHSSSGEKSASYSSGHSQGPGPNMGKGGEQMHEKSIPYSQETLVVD
# Sequence of 168 GPCRs (Homo sapiens, UniProt Q96G91) (Q96G91 whole entry): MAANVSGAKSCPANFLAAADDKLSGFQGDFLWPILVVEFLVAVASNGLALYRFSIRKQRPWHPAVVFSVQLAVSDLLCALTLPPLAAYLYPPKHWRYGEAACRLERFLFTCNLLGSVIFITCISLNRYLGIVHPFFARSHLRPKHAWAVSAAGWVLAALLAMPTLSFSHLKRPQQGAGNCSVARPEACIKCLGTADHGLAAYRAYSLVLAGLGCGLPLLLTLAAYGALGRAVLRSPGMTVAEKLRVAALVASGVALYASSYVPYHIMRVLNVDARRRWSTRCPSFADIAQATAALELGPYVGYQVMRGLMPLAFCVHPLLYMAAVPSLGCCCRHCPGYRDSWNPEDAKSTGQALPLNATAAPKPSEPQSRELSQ
# Sequence of 168 GPCRs (Homo sapiens, UniProt P25090) (P25090 whole entry): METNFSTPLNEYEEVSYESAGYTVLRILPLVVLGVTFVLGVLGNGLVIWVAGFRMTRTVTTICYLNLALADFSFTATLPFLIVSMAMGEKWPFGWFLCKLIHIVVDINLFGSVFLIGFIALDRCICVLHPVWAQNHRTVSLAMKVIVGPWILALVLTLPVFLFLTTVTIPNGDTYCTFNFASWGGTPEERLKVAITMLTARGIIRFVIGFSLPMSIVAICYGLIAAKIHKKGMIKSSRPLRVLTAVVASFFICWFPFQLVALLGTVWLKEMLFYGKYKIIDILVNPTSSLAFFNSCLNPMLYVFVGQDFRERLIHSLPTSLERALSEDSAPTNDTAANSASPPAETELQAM
# Sequence of 168 GPCRs (Homo sapiens, UniProt P25025) (P25025 whole entry): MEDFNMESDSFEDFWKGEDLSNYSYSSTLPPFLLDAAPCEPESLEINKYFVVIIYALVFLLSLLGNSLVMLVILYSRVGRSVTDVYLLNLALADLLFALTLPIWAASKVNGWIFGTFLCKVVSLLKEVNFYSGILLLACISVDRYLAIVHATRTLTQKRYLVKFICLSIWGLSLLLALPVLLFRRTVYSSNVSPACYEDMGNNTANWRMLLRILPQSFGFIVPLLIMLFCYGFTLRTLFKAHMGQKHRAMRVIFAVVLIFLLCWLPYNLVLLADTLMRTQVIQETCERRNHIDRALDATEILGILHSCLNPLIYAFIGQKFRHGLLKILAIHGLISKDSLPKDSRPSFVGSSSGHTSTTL
# Sequence of 168 GPCRs (Homo sapiens, UniProt P32238) (P32238 whole entry): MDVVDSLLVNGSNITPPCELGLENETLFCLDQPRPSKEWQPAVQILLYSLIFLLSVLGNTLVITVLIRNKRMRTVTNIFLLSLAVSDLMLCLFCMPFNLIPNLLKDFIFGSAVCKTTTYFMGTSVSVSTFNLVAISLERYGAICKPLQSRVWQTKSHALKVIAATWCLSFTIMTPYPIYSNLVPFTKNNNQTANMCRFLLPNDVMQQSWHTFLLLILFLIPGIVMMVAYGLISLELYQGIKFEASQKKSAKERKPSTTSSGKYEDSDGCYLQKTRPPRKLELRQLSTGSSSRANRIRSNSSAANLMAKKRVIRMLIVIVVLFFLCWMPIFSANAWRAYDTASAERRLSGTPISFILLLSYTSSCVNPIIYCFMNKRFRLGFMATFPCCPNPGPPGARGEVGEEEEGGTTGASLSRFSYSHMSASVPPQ
# Sequence of 168 GPCRs (Homo sapiens, UniProt P16473) (P16473 21-764): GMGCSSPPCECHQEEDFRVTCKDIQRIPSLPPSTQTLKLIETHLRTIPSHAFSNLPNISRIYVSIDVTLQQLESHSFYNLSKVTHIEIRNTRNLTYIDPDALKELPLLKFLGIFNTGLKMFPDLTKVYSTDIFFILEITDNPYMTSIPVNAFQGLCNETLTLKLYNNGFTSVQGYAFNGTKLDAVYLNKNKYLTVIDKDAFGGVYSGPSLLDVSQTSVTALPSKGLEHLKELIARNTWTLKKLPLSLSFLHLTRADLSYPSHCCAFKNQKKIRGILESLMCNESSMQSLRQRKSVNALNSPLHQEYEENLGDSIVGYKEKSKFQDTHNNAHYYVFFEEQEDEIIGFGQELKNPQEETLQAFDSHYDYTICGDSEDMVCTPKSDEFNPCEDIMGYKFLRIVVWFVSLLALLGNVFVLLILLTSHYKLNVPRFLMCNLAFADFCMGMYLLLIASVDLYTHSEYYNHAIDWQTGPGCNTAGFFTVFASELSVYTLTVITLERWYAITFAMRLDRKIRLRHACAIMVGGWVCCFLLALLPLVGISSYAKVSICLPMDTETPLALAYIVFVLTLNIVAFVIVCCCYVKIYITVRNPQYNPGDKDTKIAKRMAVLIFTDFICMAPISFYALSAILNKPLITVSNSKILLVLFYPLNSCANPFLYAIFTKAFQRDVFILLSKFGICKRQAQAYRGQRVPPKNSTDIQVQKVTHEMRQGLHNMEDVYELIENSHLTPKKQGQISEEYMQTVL
# Sequence of 168 GPCRs (Homo sapiens, UniProt P08908) (P08908 whole entry): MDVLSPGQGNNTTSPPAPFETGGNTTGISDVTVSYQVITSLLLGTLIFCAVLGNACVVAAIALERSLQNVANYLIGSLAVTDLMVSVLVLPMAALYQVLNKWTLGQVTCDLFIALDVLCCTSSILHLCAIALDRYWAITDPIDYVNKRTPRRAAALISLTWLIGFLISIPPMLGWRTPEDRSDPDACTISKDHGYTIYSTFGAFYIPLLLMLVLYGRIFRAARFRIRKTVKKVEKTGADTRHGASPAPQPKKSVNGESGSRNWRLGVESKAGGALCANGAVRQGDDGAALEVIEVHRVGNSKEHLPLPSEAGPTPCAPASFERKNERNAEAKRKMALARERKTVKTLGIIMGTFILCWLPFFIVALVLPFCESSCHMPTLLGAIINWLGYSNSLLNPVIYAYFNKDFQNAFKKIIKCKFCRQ
# Sequence of 168 GPCRs (Homo sapiens, UniProt P25116) (P25116 22-425): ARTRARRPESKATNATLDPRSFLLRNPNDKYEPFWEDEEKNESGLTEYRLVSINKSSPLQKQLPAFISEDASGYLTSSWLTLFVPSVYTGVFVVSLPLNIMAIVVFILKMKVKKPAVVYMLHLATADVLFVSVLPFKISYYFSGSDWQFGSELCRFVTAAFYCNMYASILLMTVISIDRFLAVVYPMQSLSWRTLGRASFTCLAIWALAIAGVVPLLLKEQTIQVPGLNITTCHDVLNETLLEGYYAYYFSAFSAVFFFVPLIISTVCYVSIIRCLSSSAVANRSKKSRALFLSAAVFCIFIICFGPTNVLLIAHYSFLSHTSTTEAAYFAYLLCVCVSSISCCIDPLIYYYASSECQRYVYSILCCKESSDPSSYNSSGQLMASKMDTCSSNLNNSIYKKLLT
# Sequence of 168 GPCRs (Homo sapiens, UniProt P25021) (P25021 whole entry): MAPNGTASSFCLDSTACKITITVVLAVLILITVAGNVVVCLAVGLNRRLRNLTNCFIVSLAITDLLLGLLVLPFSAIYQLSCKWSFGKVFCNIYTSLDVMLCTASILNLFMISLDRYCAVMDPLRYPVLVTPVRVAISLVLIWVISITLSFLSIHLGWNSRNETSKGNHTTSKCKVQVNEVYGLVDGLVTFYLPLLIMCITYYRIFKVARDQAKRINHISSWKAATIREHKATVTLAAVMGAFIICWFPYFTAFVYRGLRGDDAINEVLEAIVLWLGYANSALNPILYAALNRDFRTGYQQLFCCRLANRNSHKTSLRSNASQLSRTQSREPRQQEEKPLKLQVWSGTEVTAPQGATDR
# Sequence of 168 GPCRs (Homo sapiens, UniProt Q9H3N8) (Q9H3N8 whole entry): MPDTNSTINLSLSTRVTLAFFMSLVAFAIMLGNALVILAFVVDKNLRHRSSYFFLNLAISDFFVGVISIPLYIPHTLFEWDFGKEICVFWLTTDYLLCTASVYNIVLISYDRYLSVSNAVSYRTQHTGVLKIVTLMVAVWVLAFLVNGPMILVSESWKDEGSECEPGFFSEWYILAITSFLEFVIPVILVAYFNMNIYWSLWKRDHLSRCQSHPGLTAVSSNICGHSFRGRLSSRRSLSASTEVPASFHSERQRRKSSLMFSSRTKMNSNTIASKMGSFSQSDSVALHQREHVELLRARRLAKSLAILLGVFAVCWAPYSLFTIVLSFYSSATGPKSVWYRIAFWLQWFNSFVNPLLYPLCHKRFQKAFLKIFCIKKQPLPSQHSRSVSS
# Sequence of 168 GPCRs (Homo sapiens, UniProt P46663) (P46663 whole entry): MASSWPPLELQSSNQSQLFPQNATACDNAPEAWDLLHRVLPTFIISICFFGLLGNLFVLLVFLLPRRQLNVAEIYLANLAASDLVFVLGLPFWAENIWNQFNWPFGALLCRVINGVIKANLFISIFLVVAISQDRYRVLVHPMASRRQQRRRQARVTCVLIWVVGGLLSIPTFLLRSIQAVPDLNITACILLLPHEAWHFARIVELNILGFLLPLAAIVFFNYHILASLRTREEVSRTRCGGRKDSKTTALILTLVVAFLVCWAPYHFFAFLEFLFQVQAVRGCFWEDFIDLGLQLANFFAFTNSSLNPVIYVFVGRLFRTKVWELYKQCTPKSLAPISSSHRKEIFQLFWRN
# Sequence of 168 GPCRs (Homo sapiens, UniProt P48145) (P48145 whole entry): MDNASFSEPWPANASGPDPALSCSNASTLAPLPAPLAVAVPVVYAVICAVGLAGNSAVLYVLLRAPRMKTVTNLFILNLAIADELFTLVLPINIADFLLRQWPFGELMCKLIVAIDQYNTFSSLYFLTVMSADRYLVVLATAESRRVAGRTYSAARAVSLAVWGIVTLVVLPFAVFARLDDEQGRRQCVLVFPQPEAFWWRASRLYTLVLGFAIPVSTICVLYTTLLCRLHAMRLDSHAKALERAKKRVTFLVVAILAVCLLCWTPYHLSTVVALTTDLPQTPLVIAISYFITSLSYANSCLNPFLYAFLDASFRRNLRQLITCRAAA
compound,measurement,setting,value
"CNC(C)C(=O)c1ccc2c(c1)OCO2 (stereo not shown) [methylone, 3,4-methylenedioxy-N-methylcathinone]",activity at 10 µM,"168 GPCRs [1]; F2RL1, Agonist mode, 10 uM",3.8%
same,activity at 1 µM,"168 GPCRs [1]; F2RL1, Agonist, 1 uM",-0.6%
same,activity at 10 µM,"168 GPCRs [2]; Agonist mode, 10 uM",1.2%
same,activity at 1 µM,"168 GPCRs [2]; Agonist, 1 uM",1.1%
same,activity at 1 µM,168 GPCRs [3]; 1 uM,-0.9%
same,activity at 10 µM,168 GPCRs [3]; 10 uM,-1.5%
same,activity at 10 µM,"168 GPCRs [4]; Agonist mode, 10 uM",0.7%
same,activity at 1 µM,"168 GPCRs [4]; Agonist, 1 uM",-1.2%
same,activity at 10 µM,"168 GPCRs [5]; OPRM1, OPRM1, Agonist mode, 10 uM",0.5%
same,activity at 1 µM,"168 GPCRs [5]; OPRM1, OPRM1, Agonist, 1 uM",0.2%
same,activity at 10 µM,"168 GPCRs [6]; Agonist mode, 10 uM",0.2%
same,activity at 1 µM,"168 GPCRs [6]; Agonist, 1 uM",-0.1%
same,activity at 1 µM,168 GPCRs [7]; 1 uM,-1.7%
same,activity at 10 µM,168 GPCRs [7]; 10 uM,-2.5%
same,activity at 10 µM,"168 GPCRs [8]; Agonist mode, 10 uM",-0.1%
same,activity at 1 µM,"168 GPCRs [8]; Agonist, 1 uM",0.8%
same,activity at 10 µM,"168 GPCRs [9]; Agonist mode, 10 uM",-0.5%
same,activity at 1 µM,"168 GPCRs [9]; Agonist, 1 uM",-0.6%
same,activity at 1 µM,168 GPCRs [10]; 1 uM,0.1%
same,activity at 10 µM,168 GPCRs [10]; 10 uM,0.3%
same,activity at 10 µM,"168 GPCRs [11]; SSTR1, Agonist mode, 10 uM",-7.4%
same,activity at 1 µM,"168 GPCRs [11]; SSTR1, Agonist, 1 uM",-5.3%
same,activity at 10 µM,"168 GPCRs [12]; F2RL3, Agonist mode, 10 uM",7%
same,activity at 1 µM,"168 GPCRs [12]; F2RL3, Agonist, 1 uM",4.3%
same,activity at 10 µM,"168 GPCRs [13]; NPBWR1, Agonist mode, 10 uM",-1.9%
same,activity at 1 µM,"168 GPCRs [13]; NPBWR1, Agonist, 1 uM",1.6%
same,activity at 1 µM,"168 GPCRs [14]; HRH4, Agonist, 1 uM",8.6%
same,activity at 10 µM,"168 GPCRs [14]; IHRH4, Agonist mode, 10 uM",9%
same,activity at 10 µM,"168 GPCRs [15]; HRH2, Agonist mode, 10 uM",2.8%
same,activity at 1 µM,"168 GPCRs [15]; HRH2, Agonist, 1 uM",-2.5%
same,activity at 10 µM,"168 GPCRs [16]; CXCR2, Agonist mode, 10 uM",2.6%
same,activity at 1 µM,"168 GPCRs [16]; CXCR2, Agonist, 1 uM",-0.2%
same,activity at 10 µM,"168 GPCRs [17]; Agonist mode, 10 uM",0.2%
same,activity at 1 µM,"168 GPCRs [17]; Agonist, 1 uM",2.5%
same,activity at 10 µM,"168 GPCRs [18]; P2RY11, Agonist mode, 10 uM",-0.3%
same,activity at 1 µM,"168 GPCRs [18]; P2RY11, Agonist, 1 uM",0.5%
same,activity at 10 µM,"168 GPCRs [19]; FPRL1, Agonist mode, 10 uM",0.1%
same,activity at 1 µM,"168 GPCRs [19]; FPRL1, Agonist, 1 uM",-0.5%
same,activity at 10 µM,"168 GPCRs [20]; NTSR1, Agonist mode, 10 uM",-3.5%
same,activity at 1 µM,"168 GPCRs [20]; NTSR1, Agonist, 1 uM",-4.7%
